Source: patent US10870832B2, “Use of small molecules to enhance MAFA expression in pancreatic endocrine cells” (Janssen Biotech, Inc., priority 2014, dated 2020)

Columns and labels:
CaMKIIIβ(h) = test: Kinase profiling of R428; type: biochemical, human; settings: 100 μM ATP, lower number = more robust inhibition
Protocol: The efficiency of the AXL inhibitor R428 for targeting different kinases was assessed by Kinase Profiling Services using 100 μM ATP concentration (EMD Millipore). R428 was tested at 1 and 10 μM. Table IV lists the kinases profiled along with the efficiency in targeting the kinases with a lower number indicating a more robust inhibition of a particular kinase.

MAFA expression = test: Stage 7 treatment, real-time PCR of MAFA (Example 6); type: cell-based, human; settings: Stage 7, day 7, 2 μM in Stage 7 medium, H1-derived cells, mRNA
Protocol: Cells of the human embryonic stem cell line H1 (WA01) were seeded as single cells at 1×10^5 cells/cm^2 on MATRIGEL™ (1:30 dilution) coated dishes in E8 media. At about 70 to 80% confluency, the cultures were washed in 1× incomplete DPBS followed by incubation with 1× TrypLET™ Express Enzyme for 3 to 5 minutes at 37° C. The released cells were rinsed with E8 and spun at 1000 rpm for 5 minutes. The resulting cell pellet was resuspended in E8 supplemented with 10 μM Y-27632 and the single cell suspension was seeded at approximately 1.3 to 1.5×10^5 cells/cm^2. The cultures were fed every day with E8 medium and differentiation, according to the following protocol, was initiated 48 hrs. following seeding resulting in an about 90% starting confluency.
Stage 6 cells were cultured for seven days in BLAR medium supplemented with a 1:100 dilution of ITS-X; 20 mM glucose (final); 1.5 g/L sodium bicarbonate; 2% FAF-BSA; 10 μg/ml of heparin, 10 μM ZnSO4, 1 μM T3 as 3,3′, 5-triiodo-L-thyronine sodium salt, 10 μM ALK5 inhibitor II, 1 mM N-acetyl cysteine. […]
At Stage 7, day 7, mRNA was collected and expression of MAFA, UCN3, PDX1, NKX6.1, insulin and G6PC2 evaluated as compared to undifferentiated human stem cells. […]

Nc1nc(Nc2ccc3c(c2)CC[C@@H](N2CCCC2)CC3)nn1-c1cc2c(nn1)-c1ccccc1CCC2 [R428, 1H-1,2,4-Triazole-3,5-diamine, 1-(6,7-dihydro-5H-benzo[6,7]cyclohepta[1,2-c]pyridazin-3-yl) N3-[(7S)-6,7,8,9-tetrahydro-7-(1-pyrrolidinyl)-5H-benzocyclohepten-2-yl]-]
efficiency in targeting CaMKIIIβ(h) (CaMKIIIβ(h); R428 @ 1 μM): 76
efficiency in targeting CaMKIIIβ(h) (CaMKIIIβ(h); R428 @ 10 μM): 5
MAFA expression (MAFA expression): increases MAFA expression
